Assay results from US20240181081A1, “Compositions and Methods for Treatment of Myotonic Dystrophy Type 1 with CRISPR/SACAS9” (Vertex Pharmaceuticals Incorporated, priority 2021, published 2024).

Tests used:
[1] = system: CTG repeat expansion in the 3′ UTR of human DMPK gene; assay: DOUBLE-cut screening: CTG repeat excision by loss-of-signal ddPCR in primary DM1 patient myoblasts; type: cell-based; conditions: sgRNA pair RNP, mean of upstream and downstream ddPCR assays; for % of CTG repeat excision efficiency by ddPCR (DNA-PKi): 3 μM Compound 6 for 48 hrs; for % of CTG repeat excision efficiency by ddPCR (Vehicle): DMSO 48 hrs
Procedure, shortened: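 Paired upstream/downstream sgRNAs, each as RNP with recombinant SaCas9 (20 pmol protein:60 pmol sgRNA), mixed 1:1 and nucleofected into primary DM1 myoblasts; cells then given DMSO or 3 μM DNA-PKi Compound 6 for 48 hrs. Genomic DNA taken 72 hrs post-nucleofection; excision is mean of upstream and downstream loss-of-signal ddPCR, normalized to DMPK exon 1 reference.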

[2] = system: CUG RNA foci in primary DM1 patient myoblasts; assay: DOUBLE-cut screening: FISH staining of RNA foci in primary DM1 patient myoblasts; type: cell-based, human; conditions: sgRNA pair RNP, 72 hrs post nucleofection; for % of CUG foci free nuclei (DNA-PKi): 3 μM Compound 6 for 48 hrs; for % of CUG foci free nuclei (Vehicle): DMSO 48 hrs
Procedure, shortened: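 Primary DM1 patient myoblasts nucleofected with paired upstream/downstream sgRNA–SaCas9 RNPs (20 pmol protein, 60 pmol sgRNA each), then treated 48 hrs with DMSO or 3 μM DNA-PK inhibitor. At 72 hrs post nucleofection, CUG foci stained by Cy3-PNA(CAG)5 FISH with MBNL1 co-staining and quantified by high-content confocal imaging.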

Substance	% of CTG repeat excision efficiency by ddPCR (DNA-PKi) [1]	% of CTG repeat excision efficiency by ddPCR (Vehicle) [1]	% of CUG foci free nuclei (DNA-PKi) [2]	% of CUG foci free nuclei (Vehicle) [2]
SaU7 +SaD3: SaCas9 sgRNA pair, SEQ ID NOs: 7 and 11 (guide 1 CGCGGCCGGCGAACGGGGCTCG; guide 2 CAACGATAGGTGGGGGTGCGTG; listed as DNA, chemistry not fully specified)	61.82%	41.26%	80.45%	39.24%
SaU7 +SaD11: SaCas9 sgRNA pair, SEQ ID NOs: 7 and 19 (guide 1 CGCGGCCGGCGAACGGGGCTCG; guide 2 CAAAACGTGGATTGGGGTTGTT; listed as DNA, chemistry not fully specified)	51.90%	25.10%	73.38%	36.96%
SaU7 +SaD13: SaCas9 sgRNA pair, SEQ ID NOs: 7 and 21 (guide 1 CGCGGCCGGCGAACGGGGCTCG; guide 2 CCCAACAACCCCAATCCACGTT; listed as DNA, chemistry not fully specified)	55.97%	25.62%	78.52%	28.69%
SaU7 +SaD20: SaCas9 sgRNA pair, SEQ ID NOs: 7 and 28 (guide 1 CGCGGCCGGCGAACGGGGCTCG; guide 2 AGATGGAGGGCCTTTTATTCGC; listed as DNA, chemistry not fully specified)	67.93%	39.72%	83.24%	63.33%
SaU8 + SaD5: SaCas9 sgRNA pair, SEQ ID NOs: 8 and 13 (guide 1 GGCTCGAAGGGTCCTTGTAGCC; guide 2 GGGTTTGGCAAAAGCAAATTTC; listed as DNA, chemistry not fully specified)	58.77%	49.47%	84.28%	72.77%
SaU8 + SaD6: SaCas9 sgRNA pair, SEQ ID NOs: 8 and 14 (guide 1 GGCTCGAAGGGTCCTTGTAGCC; guide 2 CTTTTGCCAAACCCGCTTTTTC; listed as DNA, chemistry not fully specified)	40.19%	23.57%	65.28%	32.43%
SaU8 + SaD7: SaCas9 sgRNA pair, SEQ ID NOs: 8 and 15 (guide 1 GGCTCGAAGGGTCCTTGTAGCC; guide 2 GGGGCGCGGGATCCCCGAAAAA; listed as DNA, chemistry not fully specified)	53.42%	38.19%	82.90%	52.92%
SaU8 + SaD12: SaCas9 sgRNA pair, SEQ ID NOs: 8 and 20 (guide 1 GGCTCGAAGGGTCCTTGTAGCC; guide 2 TCAGTGCATCCAAAACGTGGAT; listed as DNA, chemistry not fully specified)	55.46%	36.64%	85.37%	76.92%
